Test results taken from article PMC5071873, “The Effects of Puerarin on Rat Ventricular Myocytes and the Potential Mechanism” (Scientific Reports, 2016).
Read-outs that look alike come from different tables or passages of the source.

Tests used:
Type in all cases: cell-based
[1] = target: T1, Kv7.1 (Homo sapiens, UniProt P51787); assay: Single-channel inside-out patch clamp recording of Kv7.1; details: puerarin 100 μM, inside-out, intracellular side
T1 construct: expressed in transfected cells; host or cells: HEK293
Protocol: (§1) The Tyrode’s solution contained (mM): 126 NaCl, 5.4 KCl, 1.8 CaCl2, 1 MgCl2, 0.33 NaH2PO4, 10 HEPES and 10 glucose, pH 7.4 (adjusted with NaOH). The Ca^2+-free Tyrode’s solution was prepared by removing CaCl2 from the Tyrode’s solution. The Kreb’s solution used for cell storage contained (mM): 70 glutamic acid, 30 KCl, 15 taurine, 0.5 MgCl2, 10 KH2PO4, 0.5 EGTA, 10 HEPES, 10 glucose, and 1% albumin, pH 7.4 (adjusted with KOH). The enzyme solution used for the rat cardiomyocyte isolation contained 0.08 g/L collagenase (type II) and 1.0 g/L BSA in Kreb’s solution. For action potential recording on cardiomyocyte, the pipette solution contained (mM): 100 potassium aspartate, 30 KCl, 1 MgCl2, 5 Mg-ATP, 5 EGTA, 5 HEPES, pH 7.3 (adjusted with KOH); the Tyrode’s solution was used as the standard bath solution. For whole-cell recording of IKs on myocytes, the pipette solution contained (mM): 125 potassium aspartate, 20 KCl, 1 MgCl2, 5 Mg-ATP, 10 EGTA, 5 HEPES, pH 7.3 (adjusted with KOH); the bath solution contained (mM): 132 NaCl, 4 KCl, 1.8 CaCl2, 1.2 MgCl2, 10 HEPES, 5 glucose, pH 7.4 (adjusted with NaOH). […]
(§2) Single-channel activity was recorded at a series of holding levels ranging from 10 mV of 50 mV. […] Single-channel events were listed and analysed by pclampfit 9.0 (single-channel search-in-analyse function). […]

[2] = target: T2, Kir2.3 (Homo sapiens, UniProt P48050); assay: Whole-cell patch clamp of Kir2.3 currents (ramp voltage protocol) in transfected HEK-293 cells
T2 sequence (P48050 1-445): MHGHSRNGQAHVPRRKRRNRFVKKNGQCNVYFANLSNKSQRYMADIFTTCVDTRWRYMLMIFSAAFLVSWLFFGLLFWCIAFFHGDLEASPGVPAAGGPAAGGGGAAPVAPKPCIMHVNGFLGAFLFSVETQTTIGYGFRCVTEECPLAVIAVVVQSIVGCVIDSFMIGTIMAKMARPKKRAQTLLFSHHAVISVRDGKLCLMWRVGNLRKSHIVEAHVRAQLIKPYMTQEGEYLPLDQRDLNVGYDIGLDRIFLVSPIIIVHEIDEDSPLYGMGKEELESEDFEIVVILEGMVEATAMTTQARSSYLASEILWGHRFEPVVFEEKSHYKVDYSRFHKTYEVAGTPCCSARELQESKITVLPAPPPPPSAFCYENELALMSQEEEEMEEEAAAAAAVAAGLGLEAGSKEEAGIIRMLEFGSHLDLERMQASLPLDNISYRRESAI
Protocol: as §1
Cell suspensions were transferred into a chamber on the stage of a Nikon Eclipse Ti inverted microscope (Tokyo, Japan). […] The IK1 was calculated as the difference between the peak inward current and the holding current level. […]

[3] = target: T3, IKs channel (Homo sapiens, UniProt P51787); assay: Single-channel inside-out patch clamp recording of IKs; details: puerarin 100 μM, inside-out, intracellular side
T3 construct: expressed in transfected cells; host or cells: HEK293
Protocol: as §1, §2

[4] = target: T4, IKs channels (KCNQ and KCNE) (Homo sapiens, UniProt P51787); assay: Whole-cell patch clamp of IKs currents (Kv7.1 + KCNE1, voltage steps) in transfected HEK293 cells; details: for IC50: HEK293, non-linear Hill fit, n = 6 each point; for IKs-tail current density / IKs current density: at 40 mV; for IKs-tail current density: control 23.5 ± 1.2; for IKs current density: control 33.8 ± 3.2
T4 construct: expressed in transfected cells; host or cells: HEK293
Protocol: The Tyrode’s solution contained (mM): 126 NaCl, 5.4 KCl, 1.8 CaCl2, 1 MgCl2, 0.33 NaH2PO4, 10 HEPES and 10 glucose, pH 7.4 (adjusted with NaOH). The Ca^2+-free Tyrode’s solution was prepared by removing CaCl2 from the Tyrode’s solution. The Kreb’s solution used for cell storage contained (mM): 70 glutamic acid, 30 KCl, 15 taurine, 0.5 MgCl2, 10 KH2PO4, 0.5 EGTA, 10 HEPES, 10 glucose, and 1% albumin, pH 7.4 (adjusted with KOH). The enzyme solution used for the rat cardiomyocyte isolation contained 0.08 g/L collagenase (type II) and 1.0 g/L BSA in Kreb’s solution. For action potential recording on cardiomyocyte, the pipette solution contained (mM): 100 potassium aspartate, 30 KCl, 1 MgCl2, 5 Mg-ATP, 5 EGTA, 5 HEPES, pH 7.3 (adjusted with KOH); the Tyrode’s solution was used as the standard bath solution. For whole-cell recording of IKs on myocytes, the pipette solution contained (mM): 125 potassium aspartate, 20 KCl, 1 MgCl2, 5 Mg-ATP, 10 EGTA, 5 HEPES, pH 7.3 (adjusted with KOH); the bath solution contained (mM): 132 NaCl, 4 KCl, 1.8 CaCl2, 1.2 MgCl2, 10 HEPES, 5 glucose, pH 7.4 (adjusted with NaOH). 3 μM nifedipine and 5 μM E-4031 were used to block the calcium current and IKr, respectively. For whole-cell recording on HEK-293 cells, the pipette solution contained (mM): 140 KCl, 2 MgCl2, 10 HEPES, 0.1 EGTA, 4 K2-ATP, pH 7.3 (adjusted with KOH); the bath solution contained (mM): 120 NaCl, 5 KCl, 1.5 CaCl2, 1 MgCl2, 10 HEPES, 10 glucose, pH 7.4 (adjusted with NaOH). For single-channel recording, the pipette solution (extracellular) contained (mM): 145 KCl, 10 HEPES, 10 glucose, pH 7.4 (adjusted with KOH); the bath solution (intracellular) contained (mM): 145 KCl, 1.2 MgCl2, 10 HEPES, 0.1 EGTA, pH 7.38 (adjusted with KOH).
Cell suspensions were transferred into a chamber on the stage of a Nikon Eclipse Ti inverted microscope (Tokyo, Japan). The whole-cell recordings were performed using isolated single ventricular myocytes. Patch electrodes were pulled from a horizontal microelectrode puller (P-1000, Sutter Instrument Co, USA) and fire polished to final tip resistance of 4.0–8.0 MΩ when filled with internal solutions. Signals were amplified with an Axopatch 200B amplifier (Axon Instruments, USA) and filtered at 1 kHz. The pCLAMP 9.0 software was used to generate current and voltage clamp protocols, acquire data, and analyse the current traces. The whole-cell series resistance was compensated to more than 80%. All of the experiments were performed at room temperature (22 ± 1 °C). The whole-cell IK1 was elicited by a ramp voltage protocol from −140 to + 40 mV in 1 s, or at a 0 mV holding potential to test potentials from −140 to + 40 mV in 10 mV increments. The IK1 was calculated as the difference between the peak inward current and the holding current level. The whole-cell Kv7.1/IKs were elicited from a −30 mV holding potential to test potentials from −80 to + 40 mV in 10 mV increments.
Human Kir2.1 cDNA, Kir2.3 cDNA, Kv7.1 cDNA and KCNE1 cDNA, was cloned in Human Embryonic Kidney 293 cells, respectively. In some cases, Kv7.1 cDNA and KCNE1 cDNA were simultaneously cloned in Human Embryonic Kidney 293 cells.

O=c1c(-c2ccc(O)cc2)coc2c([C@@H]3O[C@H](CO)[C@@H](O)[C@H](O)[C@H]3O)c(O)ccc12 [Puerarin, 8-c-glucoside of daidzein]
open probability of Kv7.1 channel [1]: significantly reduced
effect on Kir2.3 currents at low concentrations ([2]; 10 μM, 100 μM, 1 mM): less effect
Hill coefficient, inhibition of Kir2.3 ([2]; non-linear Hill fit): 0.984
open probability of IKs channel [3]: reduced
IC50 ([4]; read-out: IC50, inhibition of IKs at the peak currents): 55.6 µM
IC50 ([4]; read-out: IC50, inhibition of IKs at the tail currents): 59.8 µM
Hill coefficient, inhibition of IKs ([4]; non-linear Hill fit): 0.989
IKs-tail current density ([4]; puerarin 10 μM): 17.8 ± 1.5 pA/pF
IKs current density ([4]; puerarin 10 μM): 25.6 ± 2.4 pA/pF
IKs-tail current density ([4]; puerarin 100 μM): 9.7 ± 1.1 pA/pF
IKs current density ([4]; puerarin 100 μM): 15.7 ± 1.9 pA/pF
IKs-tail current density ([4]; puerarin 1 mM): 6.4 ± 1.2 pA/pF
IKs current density ([4]; puerarin 1 mM): 6.0 ± 1.3 pA/pF
IKs-tail current density ([4]; puerarin 10 mM): 5.2 ± 1.3 pA/pF
IKs current density ([4]; puerarin 10 mM): 5.4 ± 1.7 pA/pF
